Results on 9 compounds are retold here after PubChem BioAssay (NCI).

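Method: 48-hour compound exposure of cells in 96-well plates, five concentrations, linear interpolation of endpoints. The concentration for full growth arrest is given as TGI.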

Some test systems named below: MCF7 breast; HCC-2998 colon; COLO 205 colon; UACC-257 melanoma; SN12C renal; UO-31 renal; NCI-H226 lung; HOP-62 NSCLC; IGROV1 ovarian; SNB-19 CNS; A549 NSCLC; HCT-15 colon; SW-620 colon; HT29 colon; HL-60(TB) leukemia; BT-549 breast; SR leukemia; HS 578T breast.
Experiment in all cases: DTP human tumour cell line panel, 48 h

As for `O=c1oc2ccccc2c(O)c1/C=N/C(=S)NCc1ccccc1`, the TGI with MCF7 breast, in the assay with HCC-2998 colon, with COLO 205 colon, in the assay on UACC-257 melanoma, in the assay with SN12C renal and in the assay with UO-31 renal was over 100 µM throughout. Besides, the concentration for total growth inhibition (TGI) with NCI-H226 lung, in the assay with HOP-62 NSCLC, in the assay with IGROV1 ovarian, with SNB-19 CNS, in the assay on A549 NSCLC and in the assay with HCT-15 colon was over 100 µM throughout. In addition, the total growth inhibition concentration (TGI) in the assay on SW-620 colon is over 100 µM; in the assay on HT29 colon, over 100 µM; in the assay with HL-60(TB) leukemia it was over 100 µM; with BT-549 breast, 41.5 µM.

Take `COC(=O)C1(C(=O)OC)N=C(C)OC1c1ccccn1` (centres undefined): the TGI with MCF7 breast, with HCC-2998 colon, in the assay with COLO 205 colon, in the assay on UACC-257 melanoma, in the assay on SR leukemia and in the assay on SN12C renal was over 100 µM throughout. Moreover, the total growth inhibition concentration (TGI) with UO-31 renal, with NCI-H226 lung, in the assay with HOP-62 NSCLC, with IGROV1 ovarian, with SNB-19 CNS and in the assay on A549 NSCLC was over 100 µM in each case. Further, the TGI in the assay with HCT-15 colon, in the assay with SW-620 colon, in the assay on HL-60(TB) leukemia and with BT-549 breast was over 100 µM in each case.

`CC1CCCCN1CC(=O)c1ccc2c(c1)Sc1ccccc1O2` (centres undefined): the concentration for total growth inhibition (TGI) with HS 578T breast is 25.7 µM; in the assay on MCF7 breast, 33.6 µM; in the assay on HCC-2998 colon, 41.3 µM; in the assay on COLO 205 colon it was over 100 µM; with UACC-257 melanoma, 39 µM; in the assay with SR leukemia it was 47.8 µM. The TGI with SN12C renal turned out to be 37.9 µM; with UO-31 renal it was 25.7 µM; in the assay with NCI-H226 lung it was 26.4 µM; in the assay on HOP-62 NSCLC, 30.7 µM; in the assay on IGROV1 ovarian it was 19.9 µM; in the assay with SNB-19 CNS, 36 µM. Moreover, the TGI with A549 NSCLC turned out to be 30.7 µM; with HCT-15 colon it was 45.2 µM; with SW-620 colon it was 42.4 µM; with HT29 colon, 22.7 µM; in the assay with HL-60(TB) leukemia, 47 µM.

In the case of `COC(CC1(/C=C/O[Si](C(C)C)(C(C)C)C(C)C)C(=O)N(COCC[Si](C)(C)C)c2ccccc21)OC` (centres undefined), the TGI in the assay on HS 578T breast, in the assay on HCC-2998 colon, in the assay with COLO 205 colon, in the assay on UACC-257 melanoma, in the assay on SR leukemia and in the assay with SN12C renal was over 100 µM in each case. The total growth inhibition concentration (TGI) in the assay with UO-31 renal is over 100 µM; in the assay on NCI-H226 lung, over 100 µM; with HOP-62 NSCLC it was over 100 µM; with IGROV1 ovarian, 59.9 µM; in the assay with SNB-19 CNS, over 100 µM; in the assay on A549 NSCLC, over 100 µM. For the same compound, the TGI in the assay with HCT-15 colon, in the assay with SW-620 colon and in the assay with HT29 colon was over 100 µM throughout.

For the compound `CCOC(=O)C1C(c2ccc(O)c(OC)c2)c2c([nH][nH]c2=O)CC1(C)O` (centres undefined), the TGI in the assay on HS 578T breast, with MCF7 breast, in the assay with HCC-2998 colon, with COLO 205 colon, in the assay on UACC-257 melanoma and in the assay on SR leukemia was over 100 µM throughout. In addition, the concentration for total growth inhibition (TGI) in the assay on SN12C renal, in the assay with UO-31 renal, in the assay on HOP-62 NSCLC, in the assay on IGROV1 ovarian, with SNB-19 CNS and in the assay with A549 NSCLC was over 100 µM in each case. Further, the TGI with HCT-15 colon, in the assay on SW-620 colon, with HT29 colon and in the assay on HL-60(TB) leukemia was over 100 µM each time.

In the case of `CC(=O)OC1CC2(C)OC(Cc3ccccc32)O1` (centres undefined), the concentration for total growth inhibition (TGI) in the assay on HCC-2998 colon, in the assay on COLO 205 colon, in the assay with UACC-257 melanoma, in the assay on SR leukemia, with SN12C renal and with UO-31 renal was over 100 µM throughout. Further, the total growth inhibition concentration (TGI) in the assay on NCI-H226 lung, in the assay with HOP-62 NSCLC, in the assay with IGROV1 ovarian, with SNB-19 CNS, in the assay with A549 NSCLC and with SW-620 colon was over 100 µM in each case. Further, the TGI in the assay on HT29 colon and in the assay on HL-60(TB) leukemia was over 100 µM in each case.

In the case of `O=C(Nc1nc(C23CC4CC(CC(C4)C2)C3)cs1)c1cc2cc(Cl)ccc2oc1=O`, the TGI in the assay with HS 578T breast, in the assay on MCF7 breast, with HCC-2998 colon, in the assay with COLO 205 colon, in the assay with UACC-257 melanoma and in the assay with SR leukemia was over 100 µM each time. Also, the TGI in the assay with SN12C renal, with UO-31 renal, in the assay on NCI-H226 lung, with HOP-62 NSCLC, in the assay with IGROV1 ovarian and in the assay on SNB-19 CNS was over 100 µM throughout. The TGI with A549 NSCLC, with HCT-15 colon, in the assay with SW-620 colon, with HT29 colon and with HL-60(TB) leukemia was over 100 µM throughout.

For the compound `Cc1cc2oc(-c3ccccc3)c(C)c(=O)c2c2c1OC(C)(C)S2`, the concentration for total growth inhibition (TGI) in the assay with HCC-2998 colon, in the assay with COLO 205 colon, with UACC-257 melanoma, with SR leukemia, in the assay on SN12C renal and in the assay on UO-31 renal was over 100 µM throughout. Also, the TGI with NCI-H226 lung, in the assay on HOP-62 NSCLC, in the assay on IGROV1 ovarian, in the assay on SNB-19 CNS, in the assay with A549 NSCLC and in the assay with HCT-15 colon was over 100 µM each time. For the same compound, the total growth inhibition concentration (TGI) in the assay with SW-620 colon was over 100 µM; with HT29 colon, over 100 µM; in the assay on HL-60(TB) leukemia, 38.4 µM.

`Cc1ccc2c(c1)C1(OC(=O)c3ccccc31)c1ccc(F)cc1O2` (centres undefined): the TGI is over 100 µM in the assay on HCC-2998 colon; over 100 µM in the assay with COLO 205 colon; over 100 µM in the assay on UACC-257 melanoma; 73.8 µM in the assay on SR leukemia; over 100 µM in the assay on SN12C renal; 75.8 µM in the assay on UO-31 renal. The total growth inhibition concentration (TGI) in the assay on NCI-H226 lung was 85.8 µM; in the assay on HOP-62 NSCLC it was over 100 µM; with IGROV1 ovarian it was over 100 µM; with A549 NSCLC, over 100 µM; with SW-620 colon it was over 100 µM; in the assay with HT29 colon, over 100 µM. The compound also yielded a total growth inhibition concentration (TGI) in the assay with HL-60(TB) leukemia of 51 µM.
